Structures can show the parent of a compound that is named as a salt.
Columns and labels:
HCT116 [1] = test: AC50 cell viability (CellTiter-Glo); higher = less potent; details: 48 h
HCT116 [2] = test: efficacy (fitted maximal change in viability relative to DMSO control); higher = less cytotoxic (negative = loss of viability); details: 48 h
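For AC50 cell viability (CellTiter-Glo) in this document: HCT116 colorectal carcinoma cells screened at five concentrations per compound, luminescent viability scaled between DMSO wells and empty wells on each plate, curves fitted per compound.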
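For efficacy (fitted maximal change in viability relative to DMSO control) in this document: Luminescence-based viability readout, five doses per compound, normalized against on-plate DMSO and empty-well controls, followed by dose-response curve fitting for every drug.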

| SMILES | AC50 cell viability (HCT116 [1]) [µM] | efficacy (HCT116 [2]) [%] |
| --- | --- | --- |
| O=C(NC[C@H](O)CO)c1ccncc1Nc1ccc(I)cc1F [Pimasertib] | 0.118 | -44.3 |
| O=C(/C=C\n1cnc(-c2cc(C(F)(F)F)cc(C(F)(F)F)c2)n1)NNc1cnccn1 [Selinexor] | 0.372 | -93.1 |
| C[C@H]1COCCN1c1cc(C2([S+](=O)([O-])C3CC3)CC2)nc(-c2ccc(NC(=S)NCCO)cc2)n1 [AZD-3147] | 7.42 | -113 |
| O=C/1NC(=O)C(=C1C2=CN=C3C=CC=C[N]23)/C4=C[N]5CCN(CC6=C5C4=CC=C6)C(=O)N7CCOCC7 [GSK3 Inhibitor] | 9.34 | -85.7 |
| Nc1ncnc2c1c(COc1cccc(Cl)c1)nn2C1CCOCC1 | 18.6 | -37.2 |
| CC(C)[N]1C=C(C)C2=C1C=C(C=C2C(=O)NC\C3=C(C)\C=C(C)/NC3=O)C4=CC=C(N=C4)N5CCN(C)CC5 | 20.9 | -96.9 |
| COc1ccc(-c2cc3c(C)nc(N)nc3n([C@H]3CC[C@H](OCCO)CC3)c2=O)cn1 | 0.332 | -71.8 |
| CC(C)c1noc(N2CCC(COc3ccc(-c4ccc([S+](C)(=O)[O-])cc4)nc3)CC2)n1 | 3.72 | -32.3 |
| O=C(/C=C/c1ccc(Cl)cc1)N1CCC2(CC1)CN(Cc1ccc(Cl)c(Cl)c1)C(=O)O2 | 23.5 | -85.1 |
| CC(C)c1cc(CNc2nc(Nc3cc(C4CC4)[nH]n3)cc(N3CCN(C)CC3)n2)on1 [XL-228] | 0.295 | -64 |
| COc1cc(OC)cc(N2CCN(C(=O)Nc3nc4cc(F)ccc4nc3OC)CC2)c1 [RX-5902 (SUPINOXIN)] | 2.63 | -60 |
| CC[C@H](CO)Nc1nc(NCc2ccccc2)c2ncn(C(C)C)c2n1 [Seliciclib] | 10.5 | -84.6 |
| O=C(Nc1ccnc(NC(=O)C2CC2)c1)c1c(Cl)cccc1Cl [GDC-046] | 2.35 | -79.8 |
| CC(C)c1cnn2c(NCc3ccccc3)cc(N[C@@H](CO)[C@H](O)CO)nc12 [BS-194] | 0.0833 | -59.1 |
| CC(C)(C)C(=O)OCOP(=O)(COCCn1cnc2c(N)ncnc21)OCOC(=O)C(C)(C)C [Adefovir dipivoxil] | 3.32 | -55.3 |
| COc1ccc(CNc2nc(N(CCO)CCO)nc3c2ncn3C(C)C)cc1 [CVT-313] | 3.32 | -54.3 |
| N=C(NCCCCCCNC(=N)NC(=N)Nc1ccc(Cl)cc1)NC(=N)Nc1ccc(Cl)cc1 [Chlorhexidine] | 20.9 | -93.5 |
| Cc1ccc(NC(=O)c2ccc(CN3CCN(C)CC3)cc2)cc1Nc1nccc(-c2cccnc2)n1 [Imatinib] | 16.6 | -85 |
| C[C@H]1[C@H](O)O[C@@H]2O[C@@]3(C)CC[C@H]4[C@H](C)CC[C@@H]1[C@@]24OO3 [Artenimol] | 2.63 | -78.7 |
| N=C(N)NC(=N)NCCc1ccccc1 [Phenformin hydrochloride] | 13.2 | -38.6 |

| SMILES | AC50 cell viability (HCT116 [1]) [µM] | efficacy (HCT116 [2]) [%] |
| --- | --- | --- |
| COCC(=O)NC/C=C/c1ccc2ncnc(Nc3ccc(Oc4ccc(C)nc4)c(C)c3)c2c1 | 20.9 | -64.8 |
| CN1\C=N/C2=CC=C(NC3=CC(=CC=C3C)NC(=O)C4=CC(=CC=C4)C(C)(C)C#N)C=C2C1=O [AZ-628] | 0.332 | -50.6 |
| NC1(Cc2ccc(Cl)cc2)CCN(c2ncnc3[nH]ccc23)CC1 | 13.2 | -95.2 |
| COc1cc2ncnc(Nc3ccc(F)c(Cl)c3)c2cc1NC(=O)/C=C/CN1CCCCC1 [Dacomitinib] | 8.33 | -99.1 |
| O=C1c2c(O)ccc(O)c2C(=O)c2c(NCCNCCO)ccc(NCCNCCO)c21 [Mitoxantrone] | 1.18 | -91.4 |
| CC(C)(C)NC(=O)Nc1cccc(Nc2ncc(F)c(NC(C)(C)CO)n2)c1 [Bayer-18] | 18.6 | -54.8 |
| Nc1ccccc1NC(=O)c1ccc(CNC(=O)OCc2cccnc2)cc1 [Entinostat] | 2.95 | -83.4 |
| N#Cc1cccc(-c2c[nH]c3ncnc(N4CCOCC4)c23)c1 | 16.6 | -40.9 |
| COc1c(C)c2c(c(O)c1C/C=C(\C)CCC(=O)O)C(=O)OC2 [Mycophenolic acid] | 2.09 | -82 |
| O=C1[O][Pt]2([NH]C3CCCCC3[NH]2)[O]C1=O (stereo not given) [Oxaliplatin] | 9.11 | -42.2 |
| COC1=C(OC)C=C\2C(=C1)C(=O)N(CCCNCCO)\C3=C2C(=O)C4=C3C=C5OCOC5=C4 [LMP-744] | 4.17 | -99.5 |
| CC(=O)O/N=C1/C(=C2\C(=O)Nc3cc(Br)ccc32)Nc2ccccc21 [6-Bromoindirubin-3'-acetoxime] | 10.5 | -92.3 |
| Cc1ccc(-c2nn(C(C)(C)CNC(=O)c3ccncc3)c3ncnc(N)c23)cc1 [WEHI-345] | 6.61 | -53 |
| OC1CCC(Nc2ncc3nc(Nc4c(F)cc(F)cc4F)n([C@@H]4CCOC4)c3n2)CC1 (stereo not given in full) | 18.6 | -43.3 |
| COc1cc(N2CCC(N3CCN(C)CC3)CC2)ccc1Nc1ncnc(Nc2ccccc2[S+](=O)([O-])C(C)C)n1 [ASP-3026] | 4.68 | -82.2 |
| C[C@H](NC(=O)CCC(F)(F)F)C(=O)N[C@@H]1C(=O)N(CCO)c2ncccc2-c2ccccc21 [Crenigacestat] | 0.332 | -44.7 |
| CNC(=O)c1ccccc1Sc1ccc2c(/C=C/c3ccccn3)n[nH]c2c1 [Axitinib] | 14.8 | -80.4 |
| COc1cc(OC2CCN(C)CC2)ccc1Nc1ncc2c(n1)n(C1CCCC1)c(=O)n2C [AZ-3146] | 5.9 | -102 |
| CCCCOc1c(C(=O)c2c(F)cc(C)cc2F)cnc2[nH]ncc12 | 1.32 | -75.8 |
| O=C(NO)c1cnc(NC2(c3ccccc3)CC2)nc1 [ACY-738] | 3.32 | -79.1 |

| SMILES | AC50 cell viability (HCT116 [1]) [µM] | efficacy (HCT116 [2]) [%] |
| --- | --- | --- |
| Cc1[nH]c(/C=C2\C(=O)Nc3ccc([S+](=O)([O-])Cc4c(Cl)cccc4Cl)cc32)c(C)c1C(=O)N1CCC[C@@H]1CN1CCCC1 | 7.42 | -92 |
| COc1cc(C(=O)N2CCC(N3CCN(C)CC3)CC2)ccc1Nc1ncc2c(n1)N(C)c1ccccc1C(=O)N2C [LRRK2-IN-1] | 6.61 | -94.6 |
| COc1ccc(Oc2cc(NCCC(F)(F)F)c3ncc(-c4ccc(C(=O)NC5CC5)c(C)c4)n3n2)c(F)c1F | 0.372 | -56.8 |
| CCc1cc(-c2n[nH]c(C)c2-c2ccc3c(c2)OCCO3)c(O)cc1O | 7.42 | -87 |
| C[N]1C=C(C2=CC=CC=C12)/C3=C(/C(=O)NC3=O)C4=C[N](C)C5=CC(=CC=C45)[N+]([O-])=O [MKC-1] | 1.86 | -87.5 |
| CN[C@@H]1C[C@H]2O[C@@](C)([C@@H]1OC)n1c3ccccc3c3c4c(c5c6ccccc6n2c5c31)C(=O)N[C@H]4O [7-Hydroxystaurosporine] | 0.241 | -92.5 |
| CNCc1ccc(C)c(NC(=O)c2ccc(Nc3nc(-c4ccccc4)c4ccccc4n3)cc2)c1 | 18.6 | -94.8 |
| Cc1c(-c2ccc(-c3ccccc3F)cc2)nc2ccc(F)cc2c1C(=O)O [Brequinar] | 0.209 | -62.1 |
| OC[C@H](Cc1ccccc1)Nc1nc(Oc2ccc3c(c2)CCC3)nc2c1ncn2Cc1ccc(-c2ccccc2)cc1 [QS11] | 9.34 | -49.7 |
| O=c1[nH]c2ccccc2n1C1CCN(Cc2ccc(-c3nc4cc5nc[nH]c5cc4nc3-c3ccccc3)cc2)CC1 [AKT Inhibitor VIII] | 16.6 | -84.5 |
| CC(=O)Nc1ccc(C(=O)Nc2ccccc2N)cc1 [Tacedinaline] | 5.9 | -69.7 |
| CC(C)C1=C(O)C=C(O)C(=C1)C/2=N/NC(=O)N2C3=CC4=C(C=C3)[N](C)C=C4 [Ganetespib (STA-9090)] | 0.0742 | -62.3 |
| CNC(=O)c1cc(Oc2ccc3nc(N[C@@H]4CCCC[C@H]4O)sc3c2)ccn1 [BLZ-945] | 20.9 | -41.8 |
| CC(C)(C)C1=CC(=C(NC(=O)C/2=C/NC3=C(C=CC=C3)C2=O)C=C1O)C(C)(C)C [Ivacaftor] | 18.6 | -108 |
| CO[C@@H]1[C@@H](O)[C@H](O)[C@@H](n2c3c(Cl)cccc3c3c4c(c5c6cccc(Cl)c6[nH]c5c32)C(=O)NC4=O)O[C@H]1CO [Rebeccamycin] | 0.934 | -88.9 |
| Clc1ccc(C(Cn2ccnc2)OCc2ccsc2Cl)c(Cl)c1 (stereo not given) [Tioconazole] | 18.6 | -84.3 |
| Nc1nc(NCCNc2ncc(-n3ccnc3)c(-c3ccc(Cl)cc3Cl)n2)ccc1[N+](=O)[O-] | 2.09 | -32 |
| CN1CC/C(CC1)=C3\c4ccccc4CCc2sccc23 [Pizotifen] | 23.5 | -73.5 |
| CN1CCN(CCCN2c3ccccc3Sc3ccc(C(F)(F)F)cc32)CC1 [Trifluoperazine hydrochloride] | 26.3 | -119 |
| CCNC1(C(N)=O)CCN(c2ncnc3c2nc(-c2ccccc2Cl)n3-c2ccc(Cl)cc2)CC1 [Otenabant] | 23.5 | -97.3 |

Reference: the supplement of paper PMC10290057
